Data as given in patent US10443018B2, “Phenyl based compounds substituted with aldehyde moieties and their use in perfumery” (GIVAUDAN SA, priority 2014, dated 2019).

Columns and labels:
[1] = test system: Cryopreserved hepatocytes from male rats (Sprague Dawley); test: In vitro metabolism study in rat hepatocytes in suspension (GC-MS); details: for Residual conc.: male, Sprague Dawley, rat, 4 h, 100 μM
Protocol: In order to study in vitro metabolism in rat hepatocytes, Lilial™ and compounds of the present invention may be incubated in the presence of rat hepatocytes in suspension. Reduction in the concentration of Lilial™ and the compounds of the present invention and formation of any of the corresponding benzoic acid derivatives may be analysed by GC-MS.
Cryopreserved hepatocytes from male rats (Sprague Dawley; Lifetechnologies) were defrozen, washed in Cyropreserved Hepatocytes Recovery Medium (CHRM; Lifetechnologies) and suspended in Williams E Medium (WEM; Lifetechnologies). Lilial™, or the compounds of the present invention (final concentration: 100 μM) were added to the cells (1×10^6 viable cells/ml) and suspensions were incubated up to 4 hours at 37° C. on a shaker in duplicate. Metabolism of testosterone was monitored as positive control. Decrease of the test compounds and formation of the corresponding benzoic acid derivative was determined by GC-MS analysis of methyl esters formed after derivatisation with trimethylsilyl diazomethane (Sigma-Aldrich) in methanol. The test compounds react with diazomethane yielding a methyl ketone which was used for the quantification of Lilial™ and the compound of formula (I). Metabolism was stopped with ice cold 1 M HCl, samples were extracted with tert-butyl methyl ether (MTBE) and analysed by GC-MS. Incubations containing testosterone as control were also stopped with ice cold 1 M HCl, centrifuged to separate the cells, filtrated and the decrease of testosterone analysed by LC-MS.

[2] = test system: reproductive organs of male rats; details: rat, in vivo; cited from earlier work
[3] = test system: reproductive organs of dogs; details: dog, in vivo; cited from earlier work
mice = details: mouse, in vivo; cited from earlier work
primates = details: cited from earlier work
guinea-pigs = details: guinea pig, in vivo; cited from earlier work

Compound: Cc1ccc(CCC=O)c(CC(C)C)c1
- Residual conc. [1]: 0 µM

Compound: Cc1cc(CCC=O)cc(CC(C)C)c1 [Compound 1, 3-(3-Isobutyl-5-methylphenyl)propanal]
- Residual conc. [1]: 1.5 µM

Compound: CC(C=O)Cc1ccc(C(C)(C)C)cc1 (stereo not drawn) [Lilial, 3-(4-tert-butylphenyl)-2-methylpropanal]
- toxic effects on the reproductive organs [2]: toxic effects
- toxic effects on the reproductive organs [3]: toxic effects
- effects in toxicity studies (mice): No effects
- Residual conc. [1]: 0 µM
- effects in toxicity studies (primates): No effects
- effects in toxicity studies (guinea-pigs): No effects

Compound: C[C@]12CC[C@H]3[C@@H](CCC4=CC(=O)CC[C@@]43C)[C@@H]1CC[C@@H]2O [testosterone]
- decrease of testosterone (positive control) ([1]; rat hepatocytes, LC-MS): rapid decrease
